Test results published in article PMC12396409, “Screening and hit evaluation of a microbial metabolite library against the pathogenic Plasmodium falciparum and Toxoplasma gondii parasites” (International Journal for Parasitology: Drugs and Drug …, 2025).
Counter-ions that a name gives are not always drawn. Like-named read-outs stand apart in the source and are kept apart here.

Key:
[1] = tested on: P. falciparum 3D7 parasites; test: P. falciparum growth inhibition assay, 1-cycle (72 h treatment), SYBR DNA staining (library screen at 2 μg/mL and dose-response); format: cell-based, Plasmodium falciparum; conditions: for activity at 2 µg/mL: Plasmodium falciparum, 3D7, screen at 2 μg/mL
[2] = tested on: T. gondii RH strain (RH-Tub-eYFP) tachyzoites; test: microbe, parasite or virus in culture; format: cell-based, Toxoplasma gondii; conditions: for percent parasite growth at 2 µg/mL: Toxoplasma gondii, screen at 2 μg/mL
[3] = tested on: P. falciparum 3D7 parasites; test: P. falciparum growth inhibition assay, 2-cycle (120 h treatment), delayed-death screen and dose-response; format: cell-based, Plasmodium falciparum; conditions: for activity at 2 µg/mL: Plasmodium falciparum, 3D7, screen at 2 μg/mL
[4] = library screen at 2 μg/mL, 72 h, % growth, replicate 1
[5] = library screen at 2 μg/mL, 72 h, % growth, replicate 2
[6] = library screen at 2 μg/mL, 120 h, % growth, replicate 1
[7] = library screen at 2 μg/mL, 120 h, % growth, replicate 2

`C/C=C/C=C/C=C/C(=O)N[C@H]1CCCNC(=O)[C@H](C)N(C)C(=O)[C@H](C(C)C)N(C)C1=O` [Aspochracin] gave a Pf_72h_%Growth_Rep1 [1, 4] of 109.60%, a Pf_72h_%Growth_Rep2 [1, 5] of 89.28% and a Tg_72h_%Growth_Rep1 [2, 4] of 82.68%. For the same compound, the Tg_72h_%Growth_Rep2 [2, 5] was 94.06%, the Pf_120h_%Growth_Rep1 [3, 6] was 147.75% and the Pf_120h_%Growth_Rep2 [3, 7] was 101.25%.
For `Cc1cc(O)c(O)c2oc(=O)c3c(O)cc(O)cc3c12` [BIA-H1558], the Pf_72h_%Growth_Rep1 ([1]; P. falciparum 3D7, 72 h, library screen at 2 μg/mL, % growth, replicate 1) was 87.28%, the Pf_72h_%Growth_Rep2 ([1]; P. falciparum 3D7, 72 h, library screen at 2 μg/mL, % growth, replicate 2) was 114.26% and the Tg_72h_%Growth_Rep1 ([2]; T. gondii RH, 72 h, library screen at 2 μg/mL, % growth, replicate 1) was 100.18%. For the same compound, the Tg_72h_%Growth_Rep2 ([2]; T. gondii RH, 72 h, library screen at 2 μg/mL, % growth, replicate 2) was 87.83%, the Pf_120h_%Growth_Rep1 ([3]; P. falciparum 3D7, 120 h, library screen at 2 μg/mL, % growth, replicate 1) was 93.99% and the Pf_120h_%Growth_Rep2 ([3]; P. falciparum 3D7, 120 h, library screen at 2 μg/mL, % growth, replicate 2) was 107.81%.
With `CC1(C)C=Cc2cc3ccc(=O)oc3cc2O1` [Xanthyletin] the activity at 2 µg/mL ([1]; P. falciparum, 72 h, replicate 1, read-out: Pf_72h_%Growth_Rep1) was 88.6%, the activity at 2 µg/mL ([1]; P. falciparum, 72 h, replicate 2, read-out: Pf_72h_%Growth_Rep2) was 22.4% and the percent parasite growth at 2 µg/mL ([2]; 72 h, T. gondii, 72 h, replicate 1, read-out: Tg_72h_%Growth_Rep1) was 146%. For the same compound, the percent parasite growth at 2 µg/mL ([2]; 72 h, T. gondii, 72 h, replicate 2, read-out: Tg_72h_%Growth_Rep2) was 65.7%, the activity at 2 µg/mL ([3]; P. falciparum, 120 h, replicate 1, read-out: Pf_120h_%Growth_Rep1) was 106% and the activity at 2 µg/mL ([3]; P. falciparum, 120 h, replicate 2, read-out: Pf_120h_%Growth_Rep2) was 81.1%.
In the case of `CN(C)c1ccc(O)c2c1C[C@H]1C[C@H]3[C@H](N(C)C)C(O)=C(C(N)=O)C(=O)[C@@]3(O)C(O)=C1C2=O.Cl` [BIA-M1472], the Pf_72h_%Growth_Rep1 ([1]; P. falciparum 3D7, 72 h, parasite screen at 2 μg/mL, % growth, replicate 1) is reported as 19.15%, the Pf_72h_%Growth_Rep2 ([1]; P. falciparum 3D7, 72 h, parasite screen at 2 μg/mL, % growth, replicate 2) is reported as 16.74% and the Tg_72h_%Growth_Rep1 ([2]; T. gondii, 72 h, parasite screen at 2 μg/mL, % growth, replicate 1) is reported as 5.81%. For the same compound, the Tg_72h_%Growth_Rep2 ([2]; T. gondii, 72 h, parasite screen at 2 μg/mL, % growth, replicate 2) was 37.51%, the Pf_120h_%Growth_Rep1 ([3]; P. falciparum 3D7, 120 h, parasite screen at 2 μg/mL, % growth, replicate 1) was 1.23% and the Pf_120h_%Growth_Rep2 ([3]; P. falciparum 3D7, 120 h, parasite screen at 2 μg/mL, % growth, replicate 2) was 73.75%.
`CN(C)[C@H]1C(O)=C(C(N)=O)C(=O)[C@@]2(O)C(O)=C3C(=O)c4c(O)ccc(Cl)c4[C@@](C)(O)[C@H]3C[C@@H]12.Cl` [Epichlortetracycline hydrochloride] gave a Pf_72h_%Growth_Rep1 [1, 4] of 82.03%, a Pf_72h_%Growth_Rep2 [1, 5] of 85.38% and a Tg_72h_%Growth_Rep1 [2, 4] of 92.54%. It also gave a Tg_72h_%Growth_Rep2 [2, 5] of 103.55%, a Pf_120h_%Growth_Rep1 [3, 6] of 77.41% and a Pf_120h_%Growth_Rep2 [3, 7] of 79.95%.
`COC(=O)[C@H]1NC(=O)[C@H]2NC(=O)[C@H](NC(=O)[C@@H]3NC(=O)[C@H]4NC(=O)[C@H](NC(=O)[C@H](N)c5ccc(O)c(c5)Oc5cc4cc(O)c5C)[C@H](O)c4ccc(cc4)Oc4cc3cc(c4O[C@@H]3O[C@H](COC4O[C@@H](C)[C@H](O)[C@@H](O)[C@H]4O)[C@@H](O)[C@H](O)[C@H]3O[C@@H]3O[C@@H](CO)[C@H](O)[C@@H](O)[C@H]3O[C@@H]3OC[C@@H](O)[C@@H](O)[C@@H]3O)Oc3ccc(cc3)[C@H]2O[C@@H]2C[C@@H](N)[C@@H](O)[C@H](C)O2)c2ccc(O)c(c2)-c2c(O[C@@H]3O[C@H](CO)[C@@H](O)[C@H](O)[C@@H]3O)cc(O)cc21` (stereo partly drawn) [Ristocetin A sulfate] gave a Pf_72h_%Growth_Rep1 ([1]; P. falciparum, 72 h, parasite screen 2 μg/mL, % growth, replicate 1) of 85.98%, a Pf_72h_%Growth_Rep2 ([1]; P. falciparum, 72 h, parasite screen 2 μg/mL, % growth, replicate 2) of 111.61% and a Tg_72h_%Growth_Rep1 ([2]; T. gondii, 72 h, parasite screen 2 μg/mL, % growth, replicate 1) of 119.41%. The Tg_72h_%Growth_Rep2 ([2]; T. gondii, 72 h, parasite screen 2 μg/mL, % growth, replicate 2) was 85.51%, the Pf_120h_%Growth_Rep1 ([3]; P. falciparum, 120 h, parasite screen 2 μg/mL, % growth, replicate 1) was 82.07% and the Pf_120h_%Growth_Rep2 ([3]; P. falciparum, 120 h, parasite screen 2 μg/mL, % growth, replicate 2) was 109.30%.
Compound `CO[C@H]1C[C@H](O[C@H]2[C@H](C)O[C@@H](O[C@@H]3/C(C)=C/C[C@@H]4C[C@@H](C[C@]5(C=C[C@H](C)[C@@H](C(C)C)O5)O4)OC(=O)[C@@H]4C=C(C)[C@@H](O)[C@H]5OC/C(=C\C=C\[C@@H]3C)[C@]54O)C[C@@H]2OC)O[C@@H](C)[C@H]1NC(C)=O` [Eprinomectin B1b] has a Pf_72h_%Growth_Rep1 [1] of 56.32%, a Pf_72h_%Growth_Rep2 [1] of 35.21% and a Tg_72h_%Growth_Rep1 [2] of 157.07%. The Tg_72h_%Growth_Rep2 [2] was 101.19%, the Pf_120h_%Growth_Rep1 [3] was 33.01% and the Pf_120h_%Growth_Rep2 [3] was 22.71%.
For `CCCN1C[C@H](C)[C@@H](O)[C@](C)(O)[C@@H](CC)OC(=O)[C@H](C)[C@@H](O[C@H]2C[C@@](C)(OC)[C@@H](O)[C@H](C)O2)[C@H](C)[C@@H](O[C@@H]2O[C@H](C)C[C@H](N(C)C)[C@H]2O)[C@](C)(O)C[C@H]1C` [Gamithromycin, reference compound], the “1) Growth (%) at 72 h” value ([1]; P. falciparum, 2 μg/mL, 72 h) was 58.53%, the Pf_72h_%Growth_Rep1 [1, 4] was 42.98% and the Pf_72h_%Growth_Rep2 [1, 5] was 74.08%. For the same compound, the Tg_72h_%Growth_Rep1 [2, 4] was 33.80%, the Tg_72h_%Growth_Rep2 [2, 5] was 38.81% and the “2) Growth (%) at 120 h” value ([3]; P. falciparum, 2 μg/mL, 120 h) was 15.46%. For the same compound, the “3) Fold change (72 h/120 h)” value ([3]; P. falciparum, growth at 72 h / growth at 120 h, 2 μg/mL) was 3.8, the Pf_120h_%Growth_Rep1 [3, 6] was 12.20% and the Pf_120h_%Growth_Rep2 [3, 7] was 18.72%.
